In ChEMBL document CHEMBL1201862, “PubChem BioAssay data set” (2004):
Activity calls are given as the source filed them.

Key:
[1] = biological target: T1, Apoptotic protease-activating factor 1 (Homo sapiens, UniProt O14727); assay type: functional
T1 sequence (O14727 whole entry): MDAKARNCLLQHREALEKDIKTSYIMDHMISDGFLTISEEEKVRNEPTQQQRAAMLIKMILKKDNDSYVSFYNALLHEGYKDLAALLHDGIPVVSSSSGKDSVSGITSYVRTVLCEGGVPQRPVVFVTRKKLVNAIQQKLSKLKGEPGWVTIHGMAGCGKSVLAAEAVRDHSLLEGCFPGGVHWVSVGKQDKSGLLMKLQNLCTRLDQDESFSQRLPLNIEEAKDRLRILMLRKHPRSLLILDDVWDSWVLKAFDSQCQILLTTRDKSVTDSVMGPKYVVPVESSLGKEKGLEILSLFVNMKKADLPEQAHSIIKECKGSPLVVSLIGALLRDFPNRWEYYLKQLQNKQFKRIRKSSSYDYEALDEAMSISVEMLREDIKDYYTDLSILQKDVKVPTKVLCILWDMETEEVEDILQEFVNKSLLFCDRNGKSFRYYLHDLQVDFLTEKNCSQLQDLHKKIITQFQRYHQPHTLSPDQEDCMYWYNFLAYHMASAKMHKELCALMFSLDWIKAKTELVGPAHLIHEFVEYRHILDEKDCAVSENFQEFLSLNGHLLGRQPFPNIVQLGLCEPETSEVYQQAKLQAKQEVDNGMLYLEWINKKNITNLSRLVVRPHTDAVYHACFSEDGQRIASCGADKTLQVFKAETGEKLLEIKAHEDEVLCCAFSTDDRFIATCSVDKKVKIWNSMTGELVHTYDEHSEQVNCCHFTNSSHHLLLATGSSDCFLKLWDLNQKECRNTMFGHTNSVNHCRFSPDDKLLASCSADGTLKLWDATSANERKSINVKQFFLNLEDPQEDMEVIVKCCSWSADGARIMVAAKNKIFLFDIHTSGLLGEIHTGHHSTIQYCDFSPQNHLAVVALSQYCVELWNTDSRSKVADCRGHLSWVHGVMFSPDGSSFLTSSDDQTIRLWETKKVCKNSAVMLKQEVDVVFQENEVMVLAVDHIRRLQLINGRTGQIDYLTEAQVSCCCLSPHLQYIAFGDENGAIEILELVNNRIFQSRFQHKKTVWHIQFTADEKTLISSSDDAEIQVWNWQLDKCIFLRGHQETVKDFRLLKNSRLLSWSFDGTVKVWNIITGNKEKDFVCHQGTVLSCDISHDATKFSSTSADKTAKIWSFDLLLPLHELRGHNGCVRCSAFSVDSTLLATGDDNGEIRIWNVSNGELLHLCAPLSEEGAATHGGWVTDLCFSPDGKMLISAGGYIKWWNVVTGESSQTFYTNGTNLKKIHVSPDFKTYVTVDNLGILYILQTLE

P388/ADR = assay: cells; assay type: functional; details: Mus musculus
SN12K1 = assay: cells; assay type: functional; details: Homo sapiens
[2] = biological target: T2, Sentrin-specific protease 8 (Homo sapiens, UniProt Q96LD8); assay type: functional
T2 sequence (Q96LD8 whole entry): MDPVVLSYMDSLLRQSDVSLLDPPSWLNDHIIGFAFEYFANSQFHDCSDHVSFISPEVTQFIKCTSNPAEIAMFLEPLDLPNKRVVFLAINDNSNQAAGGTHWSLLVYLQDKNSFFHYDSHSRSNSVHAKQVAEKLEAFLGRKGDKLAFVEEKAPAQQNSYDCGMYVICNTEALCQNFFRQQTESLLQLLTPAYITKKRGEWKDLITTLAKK

P388 = assay: cells; assay type: functional; details: Mus musculus
Caspase-6 = biological target: T3, Caspase-6 (Homo sapiens, UniProt P55212); assay: inhibition of CASP6 peptide cleavage – biochemical, VEID-R110 fluorescence, cherry-pick, dose response (AID 720632)
T3 sequence (P55212 whole entry): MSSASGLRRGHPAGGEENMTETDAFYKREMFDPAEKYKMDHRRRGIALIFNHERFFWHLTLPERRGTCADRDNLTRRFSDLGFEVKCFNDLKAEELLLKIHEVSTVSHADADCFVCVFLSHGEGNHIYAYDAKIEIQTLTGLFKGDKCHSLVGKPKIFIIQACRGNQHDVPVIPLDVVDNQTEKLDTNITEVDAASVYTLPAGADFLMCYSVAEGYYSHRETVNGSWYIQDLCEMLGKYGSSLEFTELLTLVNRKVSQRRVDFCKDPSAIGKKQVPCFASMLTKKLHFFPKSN

[3] = biological target: T2, Sentrin-specific protease 8; assay type: functional; remark: listed apart in the source
[4] = biological target: 26S proteasome non-ATPase regulatory subunit 14 (Homo sapiens, UniProt O00487); assay: inhibition of proteasome subunit RPN11 – biochemical, fluorescence polarization, uHTS hits, confirmation (AID 602368); assay type: functional
Prothrombin = Prothrombin (Bos taurus, UniProt P00735); assay: thrombin protease inhibitors – biochemical, fluorescence polarization, uHTS hits, dose response (AID 602369); assay type: functional
[5] = biological target: 72 kDa type IV collagenase (Homo sapiens, UniProt P08253); assay: Dose Response validation of uHTS RPN11 inhibitor hits using a MMP-2 Fluorescence assay.; assay type: functional
H9c2 = assay: cells; assay type: functional, cell-based; details: Rattus norvegicus, H9c2, Myocardium;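 note: confirmatory concentration-response retest of ultra-high-throughput screening hits for modulation of myocardial damage; cell death induced by hydrogen peroxide oxidative stress; compound pretreatment for 60 min then peroxide exposure for 2 h; potency is for protecting the cells against peroxide damage rather than for killing them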
[6] = biological target: T4, Latent membrane protein 1 (Human herpesvirus 4 (strain B95-8), UniProt P03230); assay: LMP1 TES1 pathway selectivity over dsRED control – imaging, HEK293T, dual-color eGFP/dsRED, cherry-picks, selectivity assay for LMP1 NF-kB inhibitor project, dose response (AID 588398); assay type: functional, cell-based
T4 sequence (P03230 whole entry): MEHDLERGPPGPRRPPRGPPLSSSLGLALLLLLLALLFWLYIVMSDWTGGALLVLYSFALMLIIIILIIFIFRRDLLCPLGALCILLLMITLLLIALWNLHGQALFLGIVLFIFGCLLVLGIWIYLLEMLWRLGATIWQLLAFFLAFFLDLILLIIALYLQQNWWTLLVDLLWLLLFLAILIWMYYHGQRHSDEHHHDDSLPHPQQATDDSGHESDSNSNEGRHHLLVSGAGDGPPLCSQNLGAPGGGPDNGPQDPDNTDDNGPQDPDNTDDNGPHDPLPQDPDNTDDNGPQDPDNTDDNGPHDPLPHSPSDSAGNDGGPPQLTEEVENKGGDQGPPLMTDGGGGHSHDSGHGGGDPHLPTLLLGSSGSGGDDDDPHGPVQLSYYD

[7] = non-specific 3'UTR reporter inhibition in Clone20-Shn3RL – cell-based, Renilla luciferase, cherry-picked, counter-screen for Shn3 inhibitor project, dose response (AID 624133); assay type: functional
[8] = fluconazole-exposed Candida albicans growth modulators – fluorescence, retest, confirmation (AID 2467); assay type: functional, cell-based
HEK293 = assay: EBV LMP1 TES2 canonical NF-kB signalling blockers – cell-based, HEK293, luciferase, cherry-pick, dose response (AID 588343); assay type: functional; details: Homo sapiens
[9] = reduction of Shn3 3'UTR-driven luciferase in osteoblasts – cell-based, Clone20 osteoblasts, firefly luciferase, cherry-picked, dose response (AID 624132); assay type: functional;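 note: firefly luciferase luminescence from reporter carrying the Shn3 3'UTR in osteoblasts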
Vero = assay: cells; assay type: functional; details: Chlorocebus sabaeus
[10] = loss of viability in HepG2 cells – cell-based, CellTiter-Glo, cherry-picked, cytotoxicity control for Shn3 inhibitor project, dose response (AID 624134); assay type: functional
[11] = NIH-3T3 fibroblast cytotoxicity, dose response, cytotoxicity control, cell-based, fluorescence, Alamar Blue, secondary assay (AID 2327); assay type: functional;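 note: NIH-3T3 mouse fibroblasts cultured with fluconazole at 8 µg/mL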
H4 = assay: Luminescence Cell-Based Dose Response HTS to Identify Activators of 5'UTR Stem-Loop Driven Prion Protein mRNA Translation in H4 Neuroglioblastoma Cells. [Related pubchem assays: 1829 (Project Summary), 1814 (Primary HTS)]; assay type: functional; details: Homo sapiens
[12] = biological target: T5, Endoribonuclease toxin MazF (Escherichia coli K-12, UniProt P0AE70); assay: substrate-only fluorescence increase artefacts – biochemical, single-stranded RNase substrate, counter-screen for MazEF activator project, dose response (AID 588502); assay type: functional
T5 sequence (P0AE70 whole entry): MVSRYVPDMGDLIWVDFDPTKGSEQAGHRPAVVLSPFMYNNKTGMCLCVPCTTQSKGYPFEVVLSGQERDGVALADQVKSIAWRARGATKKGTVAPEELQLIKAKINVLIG

[13] = biological target: T5, Endoribonuclease toxin MazF; assay: activation of MazEF endoribonuclease cleavage – biochemical, fluorescence, single-stranded RNA substrate, uHTS hits, dose response (AID 588481); assay type: functional
[14] = Luminescence Cell-Based Dose Confirmation HTS to Identify Activators of 5'UTR Stem-Loop Driven Alpha-Synuclein mRNA Translation in H4 Neuroglioblastoma Cells. [Related pubchem assays: 1829 (Project Summary), 1814 (Primary HTS)]; assay type: functional
[15] = Luminescence Cell-Based Dose Response HTS to Identify Activators of Luciferase Translation or Activity in H4 […] Cells. [Related pubchem assays: 1829 (Project Summary), 1814 (Primary HTS)]; assay type: functional

Sequence of 72 kDa type IV collagenase (P08253 whole entry): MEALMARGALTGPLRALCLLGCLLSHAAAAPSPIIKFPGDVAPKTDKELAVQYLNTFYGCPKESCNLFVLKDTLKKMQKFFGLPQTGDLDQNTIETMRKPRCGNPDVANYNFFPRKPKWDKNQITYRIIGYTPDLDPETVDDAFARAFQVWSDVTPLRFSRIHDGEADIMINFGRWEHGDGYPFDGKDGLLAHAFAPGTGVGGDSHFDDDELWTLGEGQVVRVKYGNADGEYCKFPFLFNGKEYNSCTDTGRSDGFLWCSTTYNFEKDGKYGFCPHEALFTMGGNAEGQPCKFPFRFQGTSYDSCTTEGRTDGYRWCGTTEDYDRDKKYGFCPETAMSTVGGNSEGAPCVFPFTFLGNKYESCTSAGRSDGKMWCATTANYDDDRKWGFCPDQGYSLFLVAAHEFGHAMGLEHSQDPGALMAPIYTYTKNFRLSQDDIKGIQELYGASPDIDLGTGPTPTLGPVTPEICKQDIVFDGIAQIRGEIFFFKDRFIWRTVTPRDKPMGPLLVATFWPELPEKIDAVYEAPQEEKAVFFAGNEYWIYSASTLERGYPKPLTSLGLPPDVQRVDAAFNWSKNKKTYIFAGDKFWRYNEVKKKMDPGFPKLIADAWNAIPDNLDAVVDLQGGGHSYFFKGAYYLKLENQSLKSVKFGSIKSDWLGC
Sequence of 26S proteasome non-ATPase regulatory subunit 14 (O00487 whole entry): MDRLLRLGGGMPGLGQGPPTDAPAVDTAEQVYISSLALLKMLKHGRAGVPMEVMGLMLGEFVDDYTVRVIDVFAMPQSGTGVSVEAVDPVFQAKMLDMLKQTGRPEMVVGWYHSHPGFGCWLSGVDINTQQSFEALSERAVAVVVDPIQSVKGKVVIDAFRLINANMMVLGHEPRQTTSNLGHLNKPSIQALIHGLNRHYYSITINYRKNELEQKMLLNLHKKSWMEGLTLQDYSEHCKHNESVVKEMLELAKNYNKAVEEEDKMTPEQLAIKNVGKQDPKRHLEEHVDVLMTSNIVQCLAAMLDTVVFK

Cn1c(=O)[nH]c2nncnc2c1=O
IC50 [1]: 15.4 µM (active) | GI50 (P388/ADR): 213 µM (inactive) | GI50 (SN12K1): 65.8 µM (inactive) | IC50 [2]: 1.62 µM (active) | GI50 (P388): 25.8 µM (inactive) | AC50 (Caspase-6): 7.06 µM (active) | IC50 [3]: 2.08 µM (active)

COc1ccc(-c2ccc3c(c2)S(=O)(=O)c2cccc(C(=O)N4CCN(c5c(Cl)cncc5Cl)CC4)c2C3=O)cc1OC
IC50 [4]: 21.7 µM (active) | IC50 (Prothrombin): 29.3 µM (active) | IC50 [5]: > 100 µM (inactive) | IC50 (H9c2): > 79 µM (inactive)

COc1ccc(C(=O)NC(=S)NNC(=O)c2ccc3ccccc3n2)cc1
AC50 [6]: 26.8 µM (active) | AC50 [7]: 1.37 µM (active) | EC50 [8]: 3.06 µM (active) | AC50 (HEK293): 13.6 µM (active) | AC50 [9]: 4.32 µM (active) | CC50 (Vero): 10.1 µM (active) | AC50 [10]: 41.5 µM (active) | EC50 [11]: 28.4 µM (active)

COc1cc(/C=C2/C(=O)N(C)C(=S)N2C)ccc1OCc1cccc(F)c1
EC50 (H4): 4.24 µM (active) | EC50 [12]: > 99 µM (inactive) | EC50 [13]: > 99 µM (inactive) | EC50 [14]: > 120 µM (not active) | EC50 [15]: > 120 µM (not active)
